One data set deals with mouse. The conditions noted are these: administered chronically; cited from earlier work.
The test system of a further data set is rats. The conditions noted are these: rats treated with the compound; cited from earlier work.
The subject of another data set is humans. The conditions noted are these: indication primary insomnia; cited from earlier work.
Data set [1] deals with amyloid precursor protein transgenic mice. The conditions noted are these: after acute sleep restriction; cited from earlier work.
The next data set deals with rat. The conditions noted are these: cited from earlier work.
A short description of data set [2]: Measurement of brain and systemic concentration after oral administration. The conditions noted are these: rat, male wistar rats, 3 h after oral administration (100 mg/kg), n=3. Format: in vivo. How it is done:
Measurement of Brain and Systemic Concentration after Oral Administration:
In order to assess brain penetration, the concentration of the compound is measured in plasma ([P]), and brain ([B]), sampled 3 h (or at different time points) following oral administration (e.g. 100 mg/kg) to male wistar rats. The compounds are formulated e.g. in 100% PEG 400. Samples are collected in the same animal at the same time point (+/−5 min). Blood is sampled from the vena cava caudalis into containers with EDTA as anticoagulant and centrifuged to yield plasma. Brain is sampled after cardiac perfusion of 10 mL NaCl 0.9% and homogenized into one volume of cold phosphate buffer (pH 7.4). All samples are extracted with MeOH and analyzed by LC-MS/MS. Concentrations are determined with the help of calibration curves.

For another data set, the system named is rodents. The conditions noted are these: cited from earlier work.
The mark [3] stands for this setting: brain, read-out: concentration of the compound in brain ([B]).
[4] abbreviates: plasma, read-out: concentration of the compound in plasma ([P]).

Where two headings read alike, the source gives them in different places.

As to `CNC(=O)[C@@H](c1ccccc1)N1CCc2cc(OC)c(OC)cc2[C@@H]1CCc1ccc(C(F)(F)F)cc1` [(2R)-2-{(1S)-6,7-dimethoxy-1-[2-(4-trifluoromethyl-phenyl)-ethyl]-3,4-dihydro-1H-isoquinolin-2-yl}-N-methyl-2-phenyl-acetamide], the “activity in mouse model of depression” value with mouse is reported as “antidepressant-like activity”. Also, in the data set with rats, the “declarative and non-declarative learning and memory” value is on record as “intact”. Besides, the clinical efficacy entry in the data set with humans is given as “showed clinical efficacy”. The “brain levels of amyloid-beta (Aβ) and Aβ plaque deposition” value in data set [1] is “decreased”. The “activity in nicotine self-administration model” value in the data set with rat is listed as “displayed pharmacological activity”.
Regarding `Cc1ccc(-n2nccn2)c(C(=O)N2CCC[C@@]2(C)c2nc3cc(Br)cc(C)c3[nH]2)c1` [Example 5.19, [(S)-2-(5-Bromo-7-methyl-1H-benzoimidazol-2-yl)-2-methyl-pyrrolidin-1-yl]-(5-methyl-2-[1,2,3]triazol-2-yl-phenyl)-methanone], the concentration at 3 h in data set [2] (setting [3]) turned out to be 3880 ng/g; in data set [2] (setting [4]), 2100 ng/mL.
Taken in the same sequence, the figures for `COc1ccc(-n2nccn2)c(C(=O)N2CCC[C@@]2(C)c2nc3c(C)c(Cl)ccc3[nH]2)c1` [Example 5.36, [(S)-2-(5-Chloro-4-methyl-1H-benzoimidazol-2-yl)-2-methyl-pyrrolidin-1-yl]-(5-methoxy-2-[1,2,3]triazol-2-yl-phenyl)-methanone] were 1810 ng/g and 1280 ng/mL.
For the compound `Cc1ccc(-c2ncccn2)c(C(=O)N2CCC[C@@]2(C)c2nc3cc(Br)cc(C)c3[nH]2)c1` [Example 5.277, [(S)-2-(5-Bromo-7-methyl-1H-benzoimidazol-2-yl)-2-methyl-pyrrolidin-1-yl]-(5-methyl-2-pyrimidin-2-yl-phenyl)-methanone], the concentration at 3 h was found to be 5880 ng/g in data set [2] (setting [3]) and 3560 ng/mL in data set [2] (setting [4]).
For the compound `Cn1c(SCC(=O)N2CCC[C@H]2C(=O)Nc2ccccc2-c2ccccc2)nc2ccccc21` [N-biphenyl-2-yl-1-{[(1-methyl-1H-benzimidazol-2-yl)sulfanyl]acetyl}-L-prolinamide], the “behavioral (locomotor sensitization) and molecular (transcriptional responses) changes induced by repeated amphetamine administration” value with rodents is reported as “reduced”.

Source of the values: patent US11040966B2, “Benzimidazole-proline derivatives” (IDORSIA PHARMACEUTICALS LTD, priority 2012, dated 2021).
